Source: patent US20230092890A1, “1, 3, 4-Oxadiazole derivative compounds as histone deacetylase 6 inhibitor, and the pharmaceutical composition comprising the same” (Chong Kun Dang Pharmaceutical Corp., priority 2019, published 2023)

Key:
HDAC1 = target: T1, HDAC1 (Homo sapiens, UniProt Q13547); test: HDAC enzyme activity inhibition (in vitro), HDAC1 Fluorimetric Drug Discovery Assay Kit; format: biochemical; details: samples at 100, 1000 and 10000 nM; 37° C. 60 minutes; fluorescence Ex 390, Em 460; read-out: HDAC1 IC50
T1 construct: purchased Enzolifesciences BML-AK511
T1 sequence (Q13547 whole entry): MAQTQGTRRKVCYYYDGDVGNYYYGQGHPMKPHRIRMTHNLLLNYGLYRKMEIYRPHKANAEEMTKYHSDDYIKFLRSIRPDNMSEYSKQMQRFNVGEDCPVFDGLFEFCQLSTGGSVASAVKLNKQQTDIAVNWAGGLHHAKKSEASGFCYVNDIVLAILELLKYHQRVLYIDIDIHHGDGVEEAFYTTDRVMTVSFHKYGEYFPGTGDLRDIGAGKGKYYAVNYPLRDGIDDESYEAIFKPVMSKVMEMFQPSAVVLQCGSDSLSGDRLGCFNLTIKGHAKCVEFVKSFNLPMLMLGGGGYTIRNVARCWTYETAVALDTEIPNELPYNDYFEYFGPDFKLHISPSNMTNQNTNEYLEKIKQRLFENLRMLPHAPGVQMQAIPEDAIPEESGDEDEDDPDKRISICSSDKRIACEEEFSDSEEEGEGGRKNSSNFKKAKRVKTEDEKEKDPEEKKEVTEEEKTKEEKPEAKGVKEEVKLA
In short: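 Each sample reacted with enzyme for 60 min at 37° C before a 30-min developer step at the same temperature. HDAC1 doses spanned 100 to 10000 nM. Fluorescent signal was read at Ex 390/Em 460.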

HDAC6 human recombinant = target: T2, HDAC6 human recombinant (Homo sapiens, UniProt Q9UBN7); test: HDAC enzyme activity inhibition (in vitro), HDAC6 assay; format: biochemical; details: samples at 0.1, 1, 10, 100 and 1000 nM; 37° C. 60 minutes; fluorescence Ex 390, Em 460; read-out: HDAC6 IC50
T2 construct: purchased Calbiochem 382180
T2 sequence (Q9UBN7 1-1215): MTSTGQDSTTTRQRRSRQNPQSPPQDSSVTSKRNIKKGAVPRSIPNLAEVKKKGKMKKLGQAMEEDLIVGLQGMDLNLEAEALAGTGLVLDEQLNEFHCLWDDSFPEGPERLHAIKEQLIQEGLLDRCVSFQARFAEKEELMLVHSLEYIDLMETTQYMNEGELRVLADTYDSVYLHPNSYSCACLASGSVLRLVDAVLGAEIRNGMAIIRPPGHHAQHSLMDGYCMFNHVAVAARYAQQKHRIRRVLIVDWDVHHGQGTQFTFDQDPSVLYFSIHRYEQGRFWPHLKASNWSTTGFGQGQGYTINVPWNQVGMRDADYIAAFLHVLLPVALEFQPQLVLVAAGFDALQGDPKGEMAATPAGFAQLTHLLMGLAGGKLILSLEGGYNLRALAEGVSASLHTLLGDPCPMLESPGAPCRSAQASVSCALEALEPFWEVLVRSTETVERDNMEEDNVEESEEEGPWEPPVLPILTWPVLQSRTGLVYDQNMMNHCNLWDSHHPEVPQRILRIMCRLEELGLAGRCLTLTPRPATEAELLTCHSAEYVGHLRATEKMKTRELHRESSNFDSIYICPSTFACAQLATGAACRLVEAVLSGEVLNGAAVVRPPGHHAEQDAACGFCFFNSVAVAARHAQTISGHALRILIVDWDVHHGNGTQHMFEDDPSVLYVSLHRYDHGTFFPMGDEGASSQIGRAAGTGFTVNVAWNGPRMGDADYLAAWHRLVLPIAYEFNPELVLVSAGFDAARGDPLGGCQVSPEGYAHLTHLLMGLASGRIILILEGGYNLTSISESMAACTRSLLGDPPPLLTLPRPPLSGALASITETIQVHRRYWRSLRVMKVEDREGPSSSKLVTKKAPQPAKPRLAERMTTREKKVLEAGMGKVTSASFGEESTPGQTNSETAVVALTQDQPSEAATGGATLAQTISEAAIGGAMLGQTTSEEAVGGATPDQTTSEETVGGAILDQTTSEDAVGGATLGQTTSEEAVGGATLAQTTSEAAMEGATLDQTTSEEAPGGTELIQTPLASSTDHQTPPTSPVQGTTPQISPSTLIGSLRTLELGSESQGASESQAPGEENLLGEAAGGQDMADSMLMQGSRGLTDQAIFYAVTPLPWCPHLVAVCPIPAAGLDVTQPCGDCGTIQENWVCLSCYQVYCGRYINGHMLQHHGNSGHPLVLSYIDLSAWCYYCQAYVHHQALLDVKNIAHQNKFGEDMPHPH
In short: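 Fluorescence (Ex 390, Em 460) read after a 37° C, 60 min enzyme reaction and a further 30 min developer step at 37° C. Uses recombinant human HDAC6; HDAC1 arm dosed at 100, 1000, 10000 nM.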

Row | IC50 (HDAC1) [nM] | IC50 (HDAC6 human recombinant) [nM] | Structure (SMILES)
1 | > 10000 | 13 | O=c1n(Cc2ccc(-c3nnc(C(F)F)o3)cn2)c2cc(F)c(-c3ccncc3)cc2n1[C@H]1CCCN(C2COC2)C1 [Compound 299, (S)-1-((5-(5-(difluoromethyl)-1,3,4-oxadiazole-2-yl)pyridine-2-yl)methyl)-6-fluoro-3-(1-(oxetan-3-yl)piperidine-3-yl)-5-(pyridine-4-yl)-1,3-dihydro-2H-benzo[d]imidazole-2-one]
2 | > 10000 | 12 | CN1CCC(n2c(=O)n(Cc3ccc(-c4nnc(C(F)F)o4)cn3)c3ccc(-c4cccnc4)cc32)CC1 [Compound 136, 1-((5-(5-(difluoromethyl)-1,3,4-oxadiazole-2-yl)pyridine-2-yl)methyl)-3-(1-methylpiperidine-4-yl)-5-(pyridine-3-yl)-1,3-dihydro-2H-benzo[d]imidazole-2-one]
3 | > 10000 | 52 | O=c1oc2cc(-c3ccnc(N4CCN(C5COC5)CC4)c3)c(F)cc2n1Cc1ccc(-c2nnc(C(F)F)o2)cn1 [Compound 366, 3-((5-(5-(difluoromethyl)-1,3,4-oxadiazole-2-yl)pyridine-2-yl)methyl)-5-fluoro-6-(2-(4-(oxetan-3-yl)piperazine-1-yl)pyridine-4-yl)benzo[d]oxazole-2(3H)-one]
4 | > 10000 | 6 | CN1CCC(n2c(=O)n(Cc3ccc(-c4nnc(C(F)F)o4)cn3)c3cc(F)c(-c4cn[nH]c4)cc32)CC1 [Compound 248, 1-((5-(5-(difluoromethyl)-1,3,4-oxadiazole-2-yl)pyridine-2-yl)methyl)-6-fluoro-3-(1-methylpiperidine-4-yl)-5-(1H-pyrazole-4-yl)-1,3-dihydro-2H-benzo[d]imidazole-2-one]
5 | > 10000 | 606 | Cc1noc(C)c1-c1ccc2c(c1)n(Cc1ccc(-c3nnc(C(F)F)o3)cc1)c(=O)n2C1CCN(C)CC1 [Compound 131, 3-(4-(5-(difluoromethyl)-1,3,4-oxadiazole-2-yl)benzyl)-5-(3,5-dimethylisooxazole-4-yl)-1-(1-methylpiperidine-4-yl)-1,3-dihydro-2H-benzo[d]imidazole-2-one]
6 | > 10000 | 80 | CN1CCC(n2c(=O)n(Cc3ccc(-c4nnc(C(F)F)o4)cc3F)c3cc(Br)ccc32)CC1 [Compound 119, 5-bromo-3-(4-(5-(difluoromethyl)-1,3,4-oxadiazole-2-yl)-2-fluorobenzyl)-1-(1-methylpiperidine-4-yl)-1,3-dihydro-2H-benzo[d]imidazole-2-one]
7 | > 10000 | 312 | O=c1oc2cc(Cl)c(-c3cccnc3)cc2n1Cc1ccc(-c2nnc(C(F)F)o2)cn1 [Compound 229, 6-chloro-3-((5-(5-(difluoromethyl)-1,3,4-oxadiazole-2-yl)pyridine-2-yl)methyl)-5-(pyridine-3-yl)benzo[d]oxazole-2(3H)-one]
8 | > 10000 | 19 | CN1CCC(n2c(=O)n(Cc3ccc(-c4nnc(C(F)F)o4)cn3)c3ccc(-c4ccncc4)cc32)CC1 [Compound 135, 1-((5-(5-(difluoromethyl)-1,3,4-oxadiazole-2-yl)pyridine-2-yl)methyl)-3-(1-methylpiperidine-4-yl)-5-(pyridine-4-yl)-1,3-dihydro-2H-benzo[d]imidazole-2-one]
9 | > 10000 | 259 | O=C(c1ccc(C(F)(F)F)cc1)N1CCC(n2c(=O)n(Cc3ccc(-c4nnc(C(F)F)o4)cn3)c3cc(F)ccc32)CC1 [Compound 62, 3-((5-(5-(difluoromethyl)-1,3,4-oxadiazole-2-yl)pyridine-2-yl)methyl)-5-fluoro-1-(1-(4-(trifluoromethyl)benzoyl)piperidine-4-yl)-1,3-dihydro-2H-benzo[d]imidazole-2-one]
10 | > 10000 | 32 | O=C(N1CCOCC1)N1CCC(n2c(=O)n(Cc3ccc(-c4nnc(C(F)F)o4)cn3)c3cc(F)ccc32)CC1 [Compound 61, 3-((5-(5-(difluoromethyl)-1,3,4-oxadiazole-2-yl)pyridine-2-yl)methyl)-5-fluoro-1-(1-(morpholine-4-carbonyl)piperidine-4-yl)-1,3-dihydro-2H-benzo[d]imidazole-2-one]
11 | > 10000 | 35 | O=c1n(Cc2ccc(-c3nnc(C(F)F)o3)cn2)c2cc(F)ccc2n1C1CCN(C2CC3(COC3)C2)CC1 [Compound 49, 1-(1-(2-oxaspiro[3.3]heptane-6-yl)piperidine-4-yl)-3-((5-(5-(difluoromethyl)-1,3,4-oxadiazole-2-yl)pyridine-2-yl)methyl)-5-fluoro-1,3-dihydro-2H-benzo[d]imidazole-2-one]
12 | > 10000 | 61 | Cn1c(=O)n(Cc2ccc(-c3nnc(C(F)F)o3)cc2F)c2cc(F)c(Br)cc21 [Compound 148, 5-bromo-1-(4-(5-(difluoromethyl)-1,3,4-oxadiazole-2-yl)-2-fluorobenzyl)-6-fluoro-3-methyl-1,3-dihydro-2H-benzo[d]imidazole-2-one]
13 | > 10000 | 47 | O=c1oc2cc(Cl)c(Br)cc2n1Cc1ccc(-c2nnc(C(F)F)o2)cn1 [Compound 228, 5-bromo-6-chloro-3-((5-(5-(difluoromethyl)-1,3,4-oxadiazole-2-yl)pyridine-2-yl)methyl)benzo[d]oxazole-2(3H)-one]
14 | > 10000 | 92 | O=c1n(Cc2ccc(-c3nnc(C(F)F)o3)cn2)c2ccc(F)cc2n1C1CCN(C2COC2)CC1 [Compound 41, 1-((5-(5-(difluoromethyl)-1,3,4-oxadiazole-2-yl)pyridine-2-yl)methyl)-5-fluoro-3-(1-(oxetan-3-yl)piperidine-4-yl)-1,3-dihydro-2H-benzo[d]imidazole-2-one]
15 | > 10000 | 115 | CN(C)CCn1c(=O)n(Cc2ccc(-c3nnc(C(F)F)o3)cn2)c2ccccc21 [Compound 3, 1-((5-(5-(difluoromethyl)-1,3,4-oxadiazole-2-yl)pyridine-2-yl)methyl)-3-(2-(dimethylamino)ethyl)-1,3-dihydro-2H-benzo[d]imidazole-2-one]
16 | > 10000 | 332 | CN1CC(N2Cc3ccccc3N(Cc3ccc(-c4nnc(C(F)F)o4)cn3)C2=O)C1 [Compound 9, 1-((5-(5-(difluoromethyl)-1,3,4-oxadiazole-2-yl)pyridine-2-yl)methyl)-3-(1-methylazetidine-3-yl)-3,4-dihydroquinazoline-2(1H)-one]
17 | > 10000 | 39 | O=c1n(Cc2ccc(-c3nnc(C(F)F)o3)cc2)c2ccc(Cl)cc2n1C1CCN(C2COC2)CC1 [Compound 100, 5-chloro-1-(4-(5-(difluoromethyl)-1,3,4-oxadiazole-2-yl)benzyl)-3-(1-(oxetan-3-yl)piperidine-4-yl)-1,3-dihydro-2H-benzo[d]imidazole-2-one]
18 | > 10000 | 15 | O=c1oc2cc(-c3cccc4[nH]ccc34)c(F)cc2n1Cc1ccc(-c2nnc(C(F)F)o2)cn1 [Compound 279, 3-((5-(5-(difluoromethyl)-1,3,4-oxadiazole-2-yl)pyridine-2-yl)methyl)-5-fluoro-6-(1H-indole-4-yl)benzo[d]oxazole-2(3H)-one]

Row | Structure (SMILES) | IC50 (HDAC1) [nM] | IC50 (HDAC6 human recombinant) [nM]
19 | O=c1n(Cc2ccc(-c3nnc(C(F)F)o3)cn2)c2cc(F)ccc2n1C1CCN(C2CCCCC2)CC1 [Compound 54, 1-(1-cyclohexylpiperidine-4-yl)-3-((5-(5-(difluoromethyl)-1,3,4-oxadiazole-2-yl)pyridine-2-yl)methyl)-5-fluoro-1,3-dihydro-2H-benzo[d]imidazole-2-one] | > 10000 | 39
